Source: BigSolDB 2.1

O=C[C@H](O)[C@@H](O)[C@H](O)[C@H](O)CO
Details	solubility (mole fraction)
in n-decanol, 348.15 K	0.000902
in n-decanol, 353.15 K	0.000984
in n-decanol, 357.15 K	0.00119
in n-decanol, 367.15 K	0.00154
in n-decanol, 372.15 K	0.00178
in n-decanol, 377.15 K	0.00204
in n-decanol, 382.15 K	0.00239
in n-decanol, 387.15 K	0.00264
in n-decanol, 392.15 K	0.00327
in n-dodecanol, 349.15 K	0.000762
in n-dodecanol, 355.15 K	0.000802
in n-dodecanol, 360.15 K	0.000865
in n-dodecanol, 365.15 K	0.0011
in n-dodecanol, 370.15 K	0.0013
in n-dodecanol, 375.15 K	0.0014
in n-dodecanol, 382.15 K	0.00156
in n-dodecanol, 387.15 K	0.00186
in n-dodecanol, 393.15 K	0.00203
in n-octanol, 345.15 K	0.00098
in n-octanol, 355.15 K	0.00153
in n-octanol, 364.15 K	0.00192
in n-octanol, 369.15 K	0.00228
in n-octanol, 374.15 K	0.00241
in n-octanol, 379.15 K	0.0029
in n-octanol, 383.15 K	0.00341
